Laboratory results taken from patent publication US20240043373A1, “COMPOSITIONS AND METHODS FOR TREATING AMYLOID-RELATED CONDITIONS” (The Regents of the University of California, priority 2020, published 2024).
Entries after “also recorded” stand apart in the source; their conditions may differ.

Legend:
[1] = test system: p-GSK3β (Ser 9); assay: phospho GSK3β / total GSK3β western blot in SH-SY5Y cells; format: cell-based, human; settings: SH-SY5Y 100 k/well, 5 uM
Text: FIG. 14B is a graph showing each blot normalized to actin levels.
FIG. 16C is a graph decpiting the normalized to actin levels and the ratio of (phosphor-GSK3β/Actin) to (Total-GSK3β/Actin) from the Western blots in FIGS. 16A & B, calculated by densitometry.

[2] = test system: p-GSK3β; assay: Oral treatment of ApoE4:5xFAD mice, brain p-GSK3β; format: in vivo; settings: E4:FAD mice, orally 4 mg/kg for 18 days
[3] = test system: sAPPα; assay: Oral treatment of ApoE4:5xFAD mice, brain sAPPα; format: in vivo; settings: E4:FAD mice, orally 4 mg/kg for 18 days
[4] = test system: RTN3; assay: Oral treatment of ApoE4:5xFAD mice, brain RTN3; format: in vivo; settings: E4:FAD mice, orally 4 mg/kg for 18 days
[5] = test system: RTN3 monomer; assay: RTN3 monomer immunoblot (WB) in SH-SY5Y cells
[6] = test system: sAPPα; assay: sAPPα AlphaLISA in SH-SY5Y cells; format: cell-based, human; settings: for sAPPα levels after 24 h: SH-SY5Y, after 24 h (FIG. 12B); for sAPPα in SH-SY5Y cells: SH-SY5Y 150 K/well, 1, 5, 10 and 50 μM, 24 hours, AlphaLISA
Protocol: Media (20 μL) was collected every 2 h for 24 h (plate was shaken prior to media collection to disburse sAPPα) from each treatment group.

[7] = test system: BAP31; assay: BAP31 immunoblot (WB) in SH-SY5Y cells; format: cell-based, human; settings: SH-SY5Y after treatment
[8] = test system: BAP31; assay: Quantitative global proteomics (LC-MS/MS) of treated SH-SY5Y cells; format: cell-based, human; settings: treated vs vehicle (DMSO) SH-SY5Y cells
Protocol: Tryptic peptides were subsequently labeled with isobaric tandem mass tags (ThermoFischer Scientific) to provide relative quantitation between samples, and then fractionated using high pH reverse-phase chromatography for increased proteome coverage. The multiplexed samples were analyzed by liquid chromatography tandem mass spectrometry (LC-MS/MS).

[9] = test system: sAPPα; assay: Primary HTS: sAPPα AlphaLISA in CHO-7W cells; format: cell-based, Chinese Hamster
Protocol: A HTS of portions of the UCLA compound library was undertaken. The primary HTS was carried out at the MSSR facility at UCLA using CHO-7W cells. An initial screen of approximately 7000 compounds was performed using the NIH and NPW libraries, 3 plates from the targeted libraries (TAR), full LOPAC and NKIL libraries, and four plates from the Emerald/Synergy (ES) library. CHO-7W cells (5 K/well) were treated with 5 μM compounds for 48 h followed by collection of media and determination of sAPPα using an AlphaLISA.

[10] = test system: p-GSK3β (Ser 9); settings: Deng et al., 2015; used at 25 nM as positive control; cited from earlier work

## CN1[C@@H]2CC[C@H]1C[C@@H](OC(=O)c1c[nH]c3ccccc13)C2 [F03, Tropisetron]
[1]; 12 h or 18 h
  phosphorylation of GSK3β: increases phosphorylation of GSK3β
[2]
  p-GSK3β in brain: bigger increase
[3]
  sAPPα in brain: slight increase
[4]
  RTN3 levels in the brain: slightly enhanced
[5]; SH-SY5Y 100 k/well, 5 uM, 12 h, vs DMSO or untreated
  level of RTN3 monomer (~25 kD): trended to increase

## COc1cc(C(=O)OCCCN2CCCN(CCCOC(=O)c3cc(OC)c(OC)c(OC)c3)CC2)cc(OC)c1OC (racemic) [DDL-402, Dilazep]
[1]; 18 h
  ratio (phospho-GSK3β/Actin) to (Total-GSK3β/Actin): trend to increase in p-GSK3β
[6]
  sAPPα levels after 24 h: significantly increased

## CC(Cc1ccccc1)(NC(=O)CN)c1ccccc1 (centres unmarked) [DDL-401, Remacemide]
[6]
  sAPPα in SH-SY5Y cells: significantly (p>0.01) increased; also recorded: increased sAPPα
  sAPPα levels after 24 h: significantly increased
[6]; listed as Remacemide
  sAPPα in SH-SY5Y cells: sAPPα increase
[6]; SH-SY5Y 400,000/well, 5 μM, media collected every 2 h for 24 h, vs DMSO
  time course of sAPPα in media: time dependent increase in sAPPα
[7]
  BAP31 by WB: no significant increase
[8]
  levels of tryptic peptides corresponding to BAP31 (MS/MS): increase in the levels of tryptic peptides
[5]; SH-SY5Y, WB
  concentration giving a modest increase in RTN3 monomer levels: ≥ 10 µM
[9]; CHO cells stably expressing human APP, initial HTS
  enhancement of sAPPα in CHO-7W cells: enhancer of sAPPα
[9]; CHO-7W cells 5 K/well, 5 μM compound, 48 h, AlphaLISA
  percent increase in sAPPα levels normalized to control in HTS: > 25%

## sAPPα: recombinant sAPPα (25 nM) used as a positive control for GSK3β phosphorylation
[10]
  phosphorylation of GSK3β (positive control, literature): increase the phosphorylation of GSK3β
